Legend:
Assay type in all cases: cell-based, human
hESCs (H9) = assay: Cell chip cyclic voltammetry (ipc) of hESCs after YM155 treatment; details: 24 h after dose-dependent YM155 treatment (FIG. 6B)
Experimental: (§1) hESCs (H9; Wicell Research Institute) and hiPSCs (SES8; (32)) were cultured in mTeSR1 medium (StemCell Technologies) under feeder-free conditions. hASMCs and i-dSMCs were cultured in smooth muscle cell-specific medium, SMCM (ScienCell Research Laboratories), and hDFs were cultured in DMEM medium (Gibco) supplemented with 10% FBS and 0.1% gentamycin. Alkaline phosphatase staining was performed according to the direction included in the Alkaline Phosphatase Kit (Sigma).
(§2) Cyclic voltammetry (CV) method was carried out using a CHIe660C Potentiostat (CH Instruments, Austin, Tex., USA). A fabricated chip, based on an Au electrode as a working electrode, an Ag/AgCl (1M KCl) as a reference electrode, and a Pt wire as a counter electrode was used. For the electrochemical measurement, cells were washed with PBS (0.01 M, PH 7.4). […] All measurements were replicated at least three times, and the cell number was calculated following detection.
(§3) The present inventors reported two kinds of small molecules for inducing the selective apoptosis of undifferentiated hPSCs in previous studies (33). […] Label-free cell chip-based quantification of residual undifferentiated hPSCs may be applied at the end stage, which is critical to determine whether any additional treatment of undifferentiated cells is required in order to ensure safety of tumor-free cell therapy. […]

[1] = test system: hiPSCs co-cultured with hASMCs; assay: Cell chip ipc and colony morphology in mixed culture of hiPSCs and hASMCs after YM155 treatment
Experimental: (§4) Cyclic voltammetry (CV) method was carried out using a CHIe660C Potentiostat (CH Instruments, Austin, Tex., USA). A fabricated chip, based on an Au electrode as a working electrode, an Ag/AgCl (1M KCl) as a reference electrode, and a Pt wire as a counter electrode was used. For the electrochemical measurement, cells were washed with PBS (0.01 M, PH 7.4). CV detection was performed between −0.2 V and 0.6 V at 0.1 V/s in mTeSR1 (StemCell Technologies, #05850). All measurements were replicated at least three times, and the cell number was calculated following detection.
(§5) The present inventors reported two kinds of small molecules for inducing the selective apoptosis of undifferentiated hPSCs in previous studies (33). Therefore, it was predicted that, due to the induction of apoptosis by YM-155, treatment with YM-155 would decrease the number of hPSCs and thereby lower the ipc. […] Label-free cell chip-based quantification of residual undifferentiated hPSCs may be applied at the end stage, which is critical to determine whether any additional treatment of undifferentiated cells is required in order to ensure safety of tumor-free cell therapy. To mimic this situation, hiPSCs were co-cultured with hASMCs. After the co-culture in the cell chip, hiPSCs still maintained the specific colony morphology of hPSCs (FIG. 6C, left panel, black dotted line), but after 24 h of YM155 treatment, there was a typical colony morphology in hiPSCs but not in hASMCs (FIG. 6C, right panel, red dotted line).

[2] = test system: SSEA3-positive vs SSEA3-negative populations of hESC mixed culture; assay: Active caspase-3 apoptosis FACS in mixed culture of hESCs and differentiated cells derived therefrom; details: 40 nM, mixed culture of hESCs and differentiated cells derived therefrom (FIG. 10)
Text: Cells were stained with respective fluorescent-labeled antibodies and analyzed using FACSCalibur (BD Biosciences). The following antibodies were used: Oct4 (Abcam), FITC Rat Anti-SSEA3 and PE Mouse Anti-Human TRA-1-60 (BD Pharminogen). For apoptosis assays, cells were stained using the PE Annexin V Apoptosis Detection Kit and the PE Active Caspase-3 Apoptosis Kit (BD Pharminogen) according to the manufacturer's direction.
as §5

hiPSCs (SES8) = assay: Cell chip cyclic voltammetry (ipc) and cell number of hiPSCs after YM155 treatment; details: 24 h after dose-dependent YM155 treatment (FIG. 6A)
Experimental: as §1, §2, §3

undifferentiated hPSCs = assay: Detection of specific cathodic peak potential (Epc) of hPSCs after YM-155 treatment; details: after YM-155 treatment to ablate undifferentiated hPSCs
Experimental: as §4

For `COCCn1c2c([n+](Cc3cnccn3)c1C)C(=O)c1ccccc1C2=O` [YM-155], the “cathodic peak current (ipc)” value (hESCs (H9)) was “markedly reduced”, the “ipc level upon co-culture of hiPSCs and hASMCs” value ([1]; 40 nM YM155, compared with equal number of untreated hASMCs) was “as low as that of hASMCs” and the “hiPSC colony morphology on the cell chip” value ([1]; 24 hour after treatment with 30 nM YM155, mixed culture of hiPSCs and hASMCs (FIG. 6C)) was “altered morphology of hiPSC colony”. For the same molecule, the “ipc upon co-culture of hiPSCs and hASMCs” value ([1]; mixed culture, 24 hours after treatment, different doses (FIG. 6D)) was “gradually decreased in a dose-dependent manner”, the “apoptosis by active caspase-3” value [2] was “shown in only SSEA3-positive populations, not in SSEA3-negative populations” and the “apoptosis by active caspase-3” value ([2]; listed as YM-55) was “shown in only the SSEA3+(positive) population, but not in SSEA3-(negative) population”. The “cathodic peak current (ipc)” value (hiPSCs (SES8)) was “markedly reduced”, the number of cells (hiPSCs (SES8)) was “markedly reduced” and the “specific Epc of hPSCs” value (undifferentiated hPSCs) was “completely disappeared”.

Source: US20180031513A1, “CELL CHIP-BASED QUANTITATIVE ANALYSIS OF UNDIFFERENTIATED HUMAN PLURIPOTENT STEM CELL” (SOGANG UNIVERSITY RESEARCH FOUNDATION, priority 2015, published 2018)
